Source: PubChem BioAssay AID248 (DTP/NCI, 2004)
“And” between values parts separate entries of the source, which are not always exact repeats. Equal values may be shown once. Toxic doses and inconclusive results are not listed. No stated cut-off is given here; in the data, active means T/C of 150% or more; inactive means T/C below 125%.

System: L1210 leukemia ip in BDF1 mice, survival T/C
Assay: NCI In Vivo Anticancer Drug Screen. Data for tumor model L1210 Leukemia (intraperitoneal) in B6D2F1 (BDF1) mice
Conditions: endpoint: mean survival time, higher = longer survival
Outline: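 Mice bearing the transplanted tumor received compound or vehicle. Survival of the treated group was divided by that of the vehicle-treated control group to give the ratio.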

[1] = dose: 100.0 mg/kg/injection, schedule: Q01DX001 (ip), vehicle: saline
[2] = dose: 200.0 mg/kg/injection, schedule: Q01DX001 (ip), vehicle: saline
[3] = dose: 400.0 mg/kg/injection, schedule: Q01DX001 (ip), vehicle: saline
[4] = dose: 100.0 mg/kg/injection, schedule: Q04DX002 (ip), vehicle: Klucel (hydroxypropylcellulose) (HPC)
[5] = dose: 100.0 mg/kg/injection, schedule: Q04DX002 (ip), vehicle: gum acacia
[6] = dose: 200.0 mg/kg/injection, schedule: Q04DX002 (ip), vehicle: gum acacia
[7] = dose: 400.0 mg/kg/injection, schedule: Q04DX002 (ip), vehicle: gum acacia
[8] = dose: 100.0 mg/kg/injection, schedule: Q01DX009 (ip), vehicle: saline with Tween-80
[9] = dose: 200.0 mg/kg/injection, schedule: Q01DX009 (ip), vehicle: saline with Tween-80

Measured: T/C

CCOC(=O)C1C(=O)N(O)c2cnccc21 (stereo unspecified)
inactive: [1] 107 % of control | [2] 107 % of control | [3] 88 % of control

C/C=C/N1CCN(/C=C/C)C1=O
inactive: dose: 25.0 mg/kg/injection, schedule: Q04DX002 (ip), vehicle: Klucel (hydroxypropylcellulose) (HPC) 96 % of control | dose: 50.0 mg/kg/injection, schedule: Q04DX002 (ip), vehicle: Klucel (hydroxypropylcellulose) (HPC) 102 % of control | [4] 90 % of control

COC(=O)N/N=C/c1ccccc1OC
inactive: [4] 104 % of control | dose: 200.0 mg/kg/injection, schedule: Q04DX002 (ip), vehicle: Klucel (hydroxypropylcellulose) (HPC) 104 % of control | dose: 400.0 mg/kg/injection, schedule: Q04DX002 (ip), vehicle: Klucel (hydroxypropylcellulose) (HPC) 93 % of control

C=C1C(=O)OC2CC(C)C3C4OC4C(O)C3(C)C(O)C12 (stereo unspecified)
inactive: dose: 9.38 mg/kg/injection, schedule: Q01DX009 (ip), vehicle: saline with Tween-80 104 % of control | dose: 18.75 mg/kg/injection, schedule: Q01DX009 (ip), vehicle: saline with Tween-80 106 % of control | dose: 37.5 mg/kg/injection, schedule: Q01DX009 (ip), vehicle: saline with Tween-80 102 % of control

CC(=O)c1ccc(OC(=O)C(C)(C)C)cc1
inactive: [1] 97 % of control | [2] 103 % of control | [3] 98 % of control

CCOC(CCc1c(C)nc[nH]c1=O)OCC
inactive: dose: 100.0 mg/kg/injection, schedule: Q01DX009 (ip), vehicle: saline 90 % of control | dose: 200.0 mg/kg/injection, schedule: Q01DX009 (ip), vehicle: saline 98 % of control | dose: 400.0 mg/kg/injection, schedule: Q01DX009 (ip), vehicle: saline 95 % of control

CC1(C)C=CN(c2ccc(Cl)cc2)C(=O)O1
inactive: [5] 103 % of control | [6] 97 % of control | [7] 87 % of control

CCCCSc1nc2ccc([N+](=O)[O-])cc2s1
inactive: [5] 95 % of control | [6] 95 % of control | [7] 95 % of control

CSc1nc(Cl)nc(C(Cl)Cl)c1Cl
inactive: dose: 12.5 mg/kg/injection, schedule: Q01DX009 (ip), vehicle: other 93 % of control | dose: 25.0 mg/kg/injection, schedule: Q01DX009 (ip), vehicle: other 107 % of control | dose: 50.0 mg/kg/injection, schedule: Q01DX009 (ip), vehicle: other 89 % of control and 90 % of control

NCCCCC(N)C(=O)NC1C(CO)OC(n2cnc3c(N)ncnc32)C1O (stereo unspecified)
inactive: [1] 101 % of control | [2] 105 % of control | [3] 101 % of control

COc1cccc(CNC(C)(CO)CO)c1OC
inactive: dose: 50.0 mg/kg/injection, schedule: Q01DX001 (ip), vehicle: saline 98 % of control | [1] 104 % of control | [2] 102 % of control

COC1CC(OCc2ccc(Br)cc2)C(COC(c2ccccc2)(c2ccccc2)c2ccccc2)O1 (stereo unspecified)
inactive: dose: 100.0 mg/kg/injection, schedule: Q04DX003 (ip), vehicle: Klucel (hydroxypropylcellulose) (HPC) 92 % of control | dose: 200.0 mg/kg/injection, schedule: Q04DX003 (ip), vehicle: Klucel (hydroxypropylcellulose) (HPC) 94 % of control | dose: 400.0 mg/kg/injection, schedule: Q04DX003 (ip), vehicle: Klucel (hydroxypropylcellulose) (HPC) 100 % of control

O=C1NC(=O)C(c2ccccn2)N1 (stereo unspecified)
inactive: [8] 91 % of control | [9] 91 % of control | dose: 400.0 mg/kg/injection, schedule: Q01DX009 (ip), vehicle: saline with Tween-80 94 % of control

CN(C)/N=N/c1nc[nH]c1C#N
inactive: [8] 107 % of control | dose: 100.0 mg/kg/injection, schedule: Q04DX003 (ip), vehicle: saline with Tween-80 110 % of control | [9] 115 % of control | dose: 200.0 mg/kg/injection, schedule: Q04DX003 (ip), vehicle: saline with Tween-80 98 % of control | dose: 400.0 mg/kg/injection, schedule: Q04DX003 (ip), vehicle: saline with Tween-80 102 % of control

O=c1[nH]nc(Sc2ccccc2)c(=O)[nH]1
inactive: [1] 97 % of control | [2] 97 % of control | [3] 97 % of control

O=C1C(c2c[nH]c3ccc(Br)cc23)=Nc2ccc([N+](=O)[O-])cc21
inactive: [2] 96 % of control | [3] 93 % of control

CN(C)CCCN(CCCN(C)C)Cc1ccccc1
inactive: dose: 75.0 mg/kg/injection, schedule: Q01DX001 (ip), vehicle: saline 104 % of control | dose: 150.0 mg/kg/injection, schedule: Q01DX001 (ip), vehicle: saline 97 % of control
